Results published in US10106534B2 (CELGENE QUANTICEL RESEARCH, INC., priority 2014, dated 2018).
pIC50: −log10 of the molar value.

Biological target: JMJD2C (Homo sapiens (Human), UniProt Q9H3R0)
Experiment: In vitro enzyme inhibition assay for JMJD2C activity (TR-FRET)
Type: biochemical
Description: This assay determines the ability of a test compound to inhibit JMJD2C demethylase activity. Baculovirus expressed JMJD2C (GenBank Accession #BC143571, AA 2-372) was purchased from BPS Bioscience (Cat#50105).
The ability of test compounds to inhibit the activity of JMJD2C was determined in 384-well plate format under the following reaction conditions: 0.3 nM JMJD2C, 300 nM H3K9me3-biotin labeled peptide (Anaspec cat #64360), 2 μM alpha-ketoglutaric acid in assay buffer of 50 mM HEPES, pH7.3, 0.005% Brij35, 0.5 mM TCEP, 0.2 mg/ml BSA, 50 μM sodium L-ascorbate, and 2 μM ammonium iron(II) sulfate. Reaction product was determined quantitatively by TR-FRET after the addition of detection reagent Phycolink Streptavidin-allophycocyanin (Prozyme) and Europium-anti-di-methylated histone H3 lysine 9 (H3K9me2) antibody (PerkinElmer) in the presence of 5 mM EDTA in LANCE detection buffer (PerkinElmer) at a final concentration of 50 nM and 1 nM, respectively.
The assay reaction was initiated by the following: 2 μl of the mixture of 900 nM H3K9me3-biotin labeled peptide and 6 μM alpha-ketoglutaric acid with 2 μl of 11-point serial diluted inhibitor in 3% DMSO were added to each well of the plate, followed by the addition of 2 μl of 0.9 nM JMJD2C to initiate the reaction. The reaction mixture was incubated at room temperature for 30 minutes, and terminated by the addition of 6 μl of 5 mM EDTA in LANCE detection buffer containing 100 nM Phycolink Streptavidin-allophycocyanin and 2 nM Europium-anti-H3K9me2 antibody. Plates were read by EnVisionMultilabel Reader in TR-FRET mode (excitation at 320 nm, emission at 615 nm and 665 nm) after 1 hour incubation at room temperature. A ratio was calculated (665/615) for each well and fitted to determine inhibition constant (IC50).

JMJD2C, sequence (Q9H3R0 2-372): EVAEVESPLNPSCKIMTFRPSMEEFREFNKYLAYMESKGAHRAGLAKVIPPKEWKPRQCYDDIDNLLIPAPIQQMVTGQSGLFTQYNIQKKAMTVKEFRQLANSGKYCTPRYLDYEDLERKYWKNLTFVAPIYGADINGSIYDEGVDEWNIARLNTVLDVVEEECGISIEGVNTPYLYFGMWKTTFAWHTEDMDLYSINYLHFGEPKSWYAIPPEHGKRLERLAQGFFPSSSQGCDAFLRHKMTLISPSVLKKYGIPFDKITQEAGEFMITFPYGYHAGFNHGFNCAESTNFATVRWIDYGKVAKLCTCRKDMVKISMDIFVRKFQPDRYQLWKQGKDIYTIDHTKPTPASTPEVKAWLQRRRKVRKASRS

SMILES	pIC50	fold more potent for JMJD2C than the S-enantiomer (R-enantiomer vs S-enantiomer)
Cc1ccc(S(=O)(=O)c2ccc3c(c2)CCC[C@@H]3CNc2cnccc2C(=O)O)cc1 [Example 83, 3-({[(1S)-6-(4-methylbenzenesulfonyl)-1,2,3,4-tetrahydronaphthalen-1-yl]methyl}amino)pyridine-4-carboxylic acid]	6.00 to 7.00	–
O=C(O)c1ccncc1NC[C@H]1CCOc2cc(Oc3ccccc3)ccc21 [Example 47, 3-({[(4S)-7-phenoxy-3,4-dihydro-2H-1-benzopyran-4-yl]methyl}amino)pyridine-4-carboxylic acid]	5.00 to 6.00	–
O=C(O)c1ccncc1NC[C@H]1CCCc2cc(Sc3cccc(F)c3)ccc21 [Example 74, 3-({[(1S)-6-[(3-fluorophenyl)sulfanyl]-1,2,3,4-tetrahydronaphthalen-1-yl]methyl}amino)pyridine-4-carboxylic acid]	5.00 to 6.00	–
Cc1cccc(N(C)c2ccc3c(c2)CCC[C@H]3CNc2cnccc2C(=O)O)c1 [Example 143, 3-({[(1R)-6-[methyl(3-methylphenyl)amino]-1,2,3,4-tetrahydronaphthalen-1-yl]methyl}amino)pyridine-4-carboxylic acid]	5.00 to 6.00	–
O=C(O)c1ccncc1NC[C@H]1CCCc2cc(OC(F)F)ccc21 [Example 60, 3-({[(1S)-6-(difluoromethoxy)-1,2,3,4-tetrahydronaphthalen-1-yl]methyl}amino)pyridine-4-carboxylic acid]	5.00 to 6.00	–
COc1ccc(Cl)c(-c2ccc3c(c2)OCC[C@H]3CNc2cnccc2C(=O)O)c1 [Example 107, 3-({[(4R)-7-(2-chloro-5-methoxyphenyl)-3,4-dihydro-2H-1-benzopyran-4-yl]methyl}amino)pyridine-4-carboxylic acid]	6.00 to 7.00	–
CN(c1ccc2c(c1)CCC[C@H]2CNc1cnccc1C(=O)O)c1ccc2occc2c1 [Example 137, 3-({[(1R)-6-[(1-benzofuran-5-yl)(methyl)amino]-1,2,3,4-tetrahydronaphthalen-1-yl]methyl}amino)pyridine-4-carboxylic acid]	5.00 to 6.00	–
O=C(O)c1ccncc1NC[C@@H]1CCOc2cc(-c3ccccc3)ccc21 [Example 84 of U.S. Pat. No. 8,952,151, 3-({[(4R)-7-phenyl-3,4-dihydro-2H-1-benzopyran-4-yl]methyl}amino)pyridine-4-carboxylic acid, reference compound]	–	about 6 fold
O=C(O)c1ccncc1NCC1CCCc2cc(S(=O)(=O)c3cccc(F)c3)ccc21 (stereo not shown) [Example 87, 3-({[6-(3-fluorobenzenesulfonyl)-1,2,3,4-tetrahydronaphthalen-1-yl]methyl}amino)pyridine-4-carboxylic acid]	6.00 to 7.00	–
O=C(O)c1ccncc1NCC1CCOc2cc(N(CC(F)(F)F)c3ccccc3)ccc21 (stereo not shown) [Example 129, 3-[({7-[phenyl(2,2,2-trifluoroethyl)amino]-3,4-dihydro-2H-1-benzopyran-4-yl}methyl)amino]pyridine-4-carboxylic acid]	5.00 to 6.00	–
Cc1ccccc1-c1ccc2c(c1)OCC[C@@H]2CNc1cnccc1C(=O)O [Example 100, 3-({[(4S)-7-(2-methylphenyl)-3,4-dihydro-2H-1-benzopyran-4-yl]methyl}amino)pyridine-4-carboxylic acid]	5.00 to 6.00	–
O=C(O)c1ccncc1NCC1CCCc2cc(Oc3ccccc3C(F)(F)F)ccc21 (stereo not shown) [Example 62, 3-[({6-[2-(trifluoromethyl)phenoxy]-1,2,3,4-tetrahydronaphthalen-1-yl}methyl)amino]pyridine-4-carboxylic acid]	5.00 to 6.00	–
COc1cc(F)ccc1-c1ccc2c(c1)OCC[C@H]2CNc1cnccc1C(=O)O [Example 118, 3-({[(4R)-7-(4-fluoro-2-methoxyphenyl)-3,4-dihydro-2H-1-benzopyran-4-yl]methyl}amino)pyridine-4-carboxylic acid]	6.00 to 7.00	–
Cc1ccccc1Sc1ccc2c(c1)OCC[C@@H]2CNc1cnccc1C(=O)O [Example 50, 3-({[(4S)-7-[(2-methylphenyl)sulfanyl]-3,4-dihydro-2H-1-benzopyran-4-yl]methyl}amino)pyridine-4-carboxylic acid]	5.00 to 6.00	–
Cc1ccccc1Oc1ccc2c(c1)CCC[C@@H]2CNc1cnccc1C(=O)O [Example 57, 3-({[(1S)-6-(2-methylphenoxy)-1,2,3,4-tetrahydronaphthalen-1-yl]methyl}amino)pyridine-4-carboxylic acid]	5.00 to 6.00	–
O=C(O)c1ccncc1NC[C@H]1CCCc2cc(Sc3ccc(F)cc3)ccc21 [Example 76, 3-({[(1S)-6-[(4-fluorophenyl)sulfanyl]-1,2,3,4-tetrahydronaphthalen-1-yl]methyl}amino)pyridine-4-carboxylic acid]	5.00 to 6.00	–
CN(c1ccc(C(F)(F)F)cc1)c1ccc2c(c1)OCC[C@H]2CNc1cnccc1C(=O)O [Example 128, 3-({[(4R)-7-{methyl[4-(trifluoromethyl)phenyl]amino}-3,4-dihydro-2H-1-benzopyran-4-yl]methyl}amino)pyridine-4-carboxylic acid]	5.00 to 6.00	–
Cc1ccc(Sc2ccc3c(c2)CCC[C@@H]3CNc2cnccc2C(=O)O)cc1 [Example 78, 3-({[(1S)-6-[(4-methylphenyl)sulfanyl]-1,2,3,4-tetrahydronaphthalen-1-yl]methyl}amino)pyridine-4-carboxylic acid]	5.00 to 6.00	–
O=C(O)c1ccncc1NC[C@H]1CCCc2cc(S(=O)(=O)c3ccccc3)ccc21 [Example 81, 3-({[(1S)-6-(benzenesulfonyl)-1,2,3,4-tetrahydronaphthalen-1-yl]methyl}amino)pyridine-4-carboxylic acid]	6.00 to 7.00	–
CN(c1ccc2c(c1)CCC[C@H]2CNc1cnccc1C(=O)O)C1CCOCC1 [Example 113, 3-({[(1R)-6-[methyl(oxan-4-yl)amino]-1,2,3,4-tetrahydronaphthalen-1-yl]methyl}amino)pyridine-4-carboxylic acid]	6.00 to 7.00	–
CN(c1ccc(OC(F)(F)F)cc1)c1ccc2c(c1)CCC[C@H]2CNc1cnccc1C(=O)O [Example 181, 3-({[(1R)-6-{methyl[4-(trifluoromethoxy)phenyl]amino}-1,2,3,4-tetrahydronaphthalen-1-yl]methyl}amino)pyridine-4-carboxylic acid]	6.00 to 7.00	–
CCc1ccc2c(c1)CCC[C@@H]2CNc1cnccc1C(=O)O [Example 90, 3-({[(1S)-6-ethyl-1,2,3,4-tetrahydronaphthalen-1-yl]methyl}amino)pyridine-4-carboxylic acid]	6.00 to 7.00	–
CN(c1ccc(N2CC(F)(F)C2)cc1)c1ccc2c(c1)CCC[C@H]2CNc1cnccc1C(=O)O [Example 195, 3-({[(1R)-6-{[4-(3,3-difluoroazetidin-1-yl)phenyl](methyl)amino}-1,2,3,4-tetrahydronaphthalen-1-yl]methyl}amino)pyridine-4-carboxylic acid]	6.00 to 7.00	–
O=C(O)c1ccncc1NCC1NCCc2ccccc21 (stereo not shown) [Example 149, 3-[(1,2,3,4-tetrahydroisoquinolin-1-ylmethyl)amino]pyridine-4-carboxylic acid]	6.00 to 7.00	–
O=C(O)c1ccncc1NC[C@@H]1CCCc2cc(N3CCCCc4ccccc43)ccc21 [Example 162, 3-({[(1R)-6-(2,3,4,5-tetrahydro-1H-1-benzazepin-1-yl)-1,2,3,4-tetrahydronaphthalen-1-yl]methyl}amino)pyridine-4-carboxylic acid]	5.00 to 6.00	–
